Assays:
[1] = compound: CC1=CC(=C(N1C2=CC=C(C=C2)Cl)C)C(=O)CN3CCCCC3 [IU1-47] + CC(=O)Nc1cccc(-n2c(=O)n(C3CC3)c(=O)c3c(Nc4ccc(I)cc4F)n(C)c(=O)c(C)c32)c1 [Trametinib] (partner 0.02 µM); test: relative viability (nuclei count vs DMSO), 5 days (fraction); higher = more cells survive
Outline: (§1)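 After 5 days of treatment, lung cancer cells in 1536-well plates were fixed and stained in a single step (final 0.05% Triton X-100, 1% formaldehyde, 1 ug/ml Hoechst) and their nuclei counted on 4× images. Treatment had been applied by pin tool the day after seeding as one drug alone or as a fixed anchor-drug dose with five library-drug doses (not always all listed) in √10 steps. Relative viability is the nuclei count of treated wells divided by that of vehicle wells, and values are medians of duplicate plates.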

[2] = compound: CC1=CC(=C(N1C2=CC=C(C=C2)Cl)C)C(=O)CN3CCCCC3 [IU1-47] + NC(=O)Nc1cc(-c2cccc(F)c2)sc1C(=O)N[C@H]1CCCNC1 [AZD7762] (partner 0.2 µM); test: as above
Outline: as §1

| Cell Line | relative viability ([1]; first compound 0.08 µM) | relative viability ([1]; first compound 0.253 µM) | relative viability ([1]; first compound 0.8 µM) | relative viability ([1]; first compound 2.53 µM) | relative viability ([1]; first compound 8 µM) | relative viability ([2]; first compound 0.08 µM) | relative viability ([2]; first compound 0.253 µM) | relative viability ([2]; first compound 0.8 µM) | relative viability ([2]; first compound 2.53 µM) | relative viability ([2]; first compound 8 µM) |
| --- | --- | --- | --- | --- | --- | --- | --- | --- | --- | --- |
| NCI-H661 | 0.576 | 0.57 | 0.576 | 0.464 | 0.471 | – | – | – | – | – |
| NCI-H727 | 0.438 | 0.349 | 0.369 | 0.375 | 0.368 | 0.582 | 0.539 | 0.539 | 0.512 | 0.58 |
| NCI-H838 | 0.521 | 0.472 | 0.581 | 0.501 | 0.53 | 0.931 | 0.99 | 0.917 | 0.925 | 0.876 |
| NCI-H1355 | 0.432 | 0.441 | 0.386 | – | 0.35 | 0.798 | 0.957 | 0.844 | – | 0.584 |
| NCI-H1395 | 1.16 | 1.13 | 1.06 | 0.914 | 0.803 | 0.422 | 0.336 | 0.414 | 0.384 | 0.392 |
| NCI-H1437 | 0.48 | 0.485 | 0.556 | 0.391 | 0.496 | 1.14 | 1.11 | 1.12 | 1.05 | 1.1 |
| NCI-H1648 | 0.624 | 0.535 | 0.463 | 0.407 | 0.391 | 0.61 | 0.727 | 0.821 | 0.732 | 0.508 |
| NCI-H1650 | 0.515 | 0.766 | 0.612 | 0.62 | 0.459 | – | – | – | – | – |
| NCI-H1651 | 0.885 | 0.856 | 0.806 | 0.824 | 0.811 | 0.479 | 0.498 | 0.529 | 0.316 | 0.418 |

— the supplement of paper PMC10307832
